In ChEMBL document CHEMBL4052785, “Discovery of (R)-5-(benzo[d][1,3]dioxol-5-yl)-7-((1-(vinylsulfonyl)pyrrolidin-2-yl)methyl)-7H-pyrrolo[2,3-d]pyrimidin-4-amine (B6) as a potent Bmx inhibitor for the treatment of NSCLC” (Bioorg Med Chem Lett, 2017):
Values after ≈ are worked out from the molar mass of the structure shown.

Columns and labels:
[1] = test system: NCI-H1975; assay: Antitumor activity against human NCI-H1975 cells xenografted in nude mouse assessed as tumor growth inhibition at 25 mg/kg administered via oral gavage qd measured every 2 days up to 18 days relative to control; format: functional; settings: read-out: TGI
[2] = test system: A549; assay: Antiproliferative activity against human A549 cells harboring wild type EGFR after 72 hrs by MTT assay; format: functional, cell-based; settings: A549, 72 h
[3] = test system: HCC827; assay: Antiproliferative activity against human HCC827 cells harboring EGFR Del19 mutant after 72 hrs by MTT assay; format: functional, cell-based; settings: HCC827, 72 h
[4] = test system: NCI-H1975; assay: Antiproliferative activity against human NCI-H1975 cells harboring EGFR L858R/T790M mutant after 72 hrs by MTT assay; format: functional, cell-based; settings: NCI-H1975, 72 h
[5] = Aqueous solubility of the compound at 1 mg; format: physicochemical

IC50 [2] [µM] | IC50 [3] [µM] | IC50 [4] [µM] | solubility [5] [mg/mL] | SMILES | inhibition in vivo at 25 mg/kg [1] [%]
1.78 | 0.016 | 0.33 | 0.1 (≈ 234 µM) | C=CS(=O)(=O)N1CC[C@H](Cn2cc(-c3ccc4c(c3)OCO4)c3c(N)ncnc32)C1 | –
12.9 | – | 2.92 | 0.1 (≈ 255 µM) | C=CC(=O)N1CCC[C@@H]1Cn1cc(-c2ccc3c(c2)OCO3)c2c(N)ncnc21 | –
7.44 | 0.504 | 0.44 | < 0.01 | C=CS(=O)(=O)N1CCC[C@@H]1Cn1cc(-c2ccc(Oc3ccccc3)cc2)c2c(N)ncnc21 | –
15.5 | – | 1.92 | < 0.01 | C=CC(=O)N1CCC[C@@H]1Cn1cc(-c2ccc(Oc3ccccc3)cc2)c2c(N)ncnc21 | –

The remaining lines, values behind:

SMILES | IC50 [2] [µM] | IC50 [3] [µM] | IC50 [4] [µM] | solubility [5] [mg/mL] | inhibition in vivo at 25 mg/kg [1] [%]
C=CC(=O)N1CCC[C@@H](n2nc(-c3ccc(Oc4ccccc4)cc3)c3c(N)ncnc32)C1 [IBRUTINIB] | 21.8 | 0.039 | 1.27 | < 0.01 | 59.6
C=CS(=O)(=O)N1CC[C@H](Cn2cc(-c3ccc(Oc4ccccc4)cc3)c3c(N)ncnc32)C1 | 13 | 0.581 | 0.91 | < 0.01 | –
C=CC(=O)N1CCC(Cn2cc(-c3ccc(Oc4ccccc4)cc3)c3c(N)ncnc32)C1 (single isomer, unassigned) | 14.2 | – | 6.31 | < 0.01 | –
C=CC(=O)N1CCC(Cn2cc(-c3ccc4c(c3)OCO4)c3c(N)ncnc32)C1 (single isomer, unassigned) | 8.24 | – | 6.3 | 0.1 (≈ 255 µM) | –
